Measurements as given in patent US20080051387A1, “TETRAHYDROPYRIDO[3,4-D]PYRIMIDINES AND RELATED ANALOGUES” (priority 2006, published 2008).

molecular target: T1, chimeric human H3 receptor (Homo sapiens, UniProt Q9Y5N1); assay: Chimeric human H3 receptor screening GTP binding assay (inhibition of histamine-stimulated GTP-gamma35S binding, Example 8); type: biochemical; settings: 1 h; assay of Example 8; symbol "!" in column headed Ki; read-out: percent inhibition of agonist-induced GTP-gammaS binding to H3
T1 construct: rat Galpha-i2 (Gnai2, rat); made in house; host or cells: Sf9 insect cells (baculovirus); P2 membranes
Method in brief: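 Sf9 membranes co-expressing chimeric human H3 receptor and heterotrimeric G-protein (35 μg protein) incubated 60 min at room temperature with 4 μM compound, 1 μM histamine and 125 pM GTP-gamma35S in pH 7.4 buffer with 10 μM GDP. Filter-bound radioactivity, nonspecific (10 μM GTP-gammaS) subtracted, reported as % inhibition of histamine signal.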

T1 sequence (Q9Y5N1 with tags, fused parts or gaps): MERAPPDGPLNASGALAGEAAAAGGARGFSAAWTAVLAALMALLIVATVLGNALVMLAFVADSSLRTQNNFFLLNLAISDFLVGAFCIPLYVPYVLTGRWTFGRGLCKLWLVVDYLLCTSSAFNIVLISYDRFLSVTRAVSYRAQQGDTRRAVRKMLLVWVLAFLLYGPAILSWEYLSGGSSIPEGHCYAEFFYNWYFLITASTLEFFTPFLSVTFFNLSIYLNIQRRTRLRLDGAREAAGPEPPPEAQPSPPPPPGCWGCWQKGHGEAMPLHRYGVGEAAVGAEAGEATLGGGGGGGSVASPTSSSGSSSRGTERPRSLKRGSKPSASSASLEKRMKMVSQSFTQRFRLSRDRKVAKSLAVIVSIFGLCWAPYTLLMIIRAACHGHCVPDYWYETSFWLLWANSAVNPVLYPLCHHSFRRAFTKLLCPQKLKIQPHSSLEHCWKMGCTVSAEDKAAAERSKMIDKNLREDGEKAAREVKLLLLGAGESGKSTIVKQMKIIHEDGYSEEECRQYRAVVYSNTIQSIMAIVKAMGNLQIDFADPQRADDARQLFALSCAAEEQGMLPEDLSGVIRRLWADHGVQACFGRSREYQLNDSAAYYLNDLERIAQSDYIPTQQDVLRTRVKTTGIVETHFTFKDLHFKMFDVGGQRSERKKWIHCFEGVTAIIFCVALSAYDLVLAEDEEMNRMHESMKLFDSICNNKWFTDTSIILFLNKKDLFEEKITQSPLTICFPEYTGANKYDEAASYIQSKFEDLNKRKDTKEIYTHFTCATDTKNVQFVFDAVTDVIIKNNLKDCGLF

SMILES | inhibition at 4 µM [%]
Cc1cccc(OCC(=O)N2CCc3cnc(N4CCN(C5CCC5)CC4)nc3CC2)c1 [Compound 322, 2-(4-cyclobutylpiperazin-1-yl)-7-[(3-methylphenoxy)acetyl]-6,7,8,9-tetrahydro-5H-pyrimido[4,5-d]azepine] | ≥ 90
COc1ccccc1OCC(=O)N1CCc2cnc(N3CCN(C4CCC4)CC3)nc2CC1 [Compound 323, 2-(4-cyclobutylpiperazin-1-yl)-7-[(2-methoxyphenoxy)acetyl]-6,7,8,9-tetrahydro-5H-pyrimido[4,5-d]azepine] | ≥ 90
O=C(COc1ccc(Cl)cc1)N1CCc2cnc(N3CCN(C4CCC4)CC3)nc2CC1 [Compound 326, 7-[(4-chlorophenoxy)acetyl]-2-(4-cyclobutylpiperazin-1-yl)-6,7,8,9-tetrahydro-5H-pyrimido[4,5-d]azepine] | ≥ 90
Cc1cccc(OCC(=O)N2CCc3cnc(N4CCN(C5CCC5)CC4)nc3CC2)c1C [Compound 327, 2-(4-cyclobutylpiperazin-1-yl)-7-[(2,3-dimethylphenoxy)acetyl]-6,7,8,9-tetrahydro-5H-pyrimido[4,5-d]azepine] | ≥ 90
Cc1cc(Cl)ccc1OCC(=O)N1CCc2cnc(N3CCN(C4CCC4)CC3)nc2CC1 [Compound 328, 7-[(4-chloro-2-methylphenoxy)acetyl]-2-(4-cyclobutylpiperazin-1-yl)-6,7,8,9-tetrahydro-5H-pyrimido[4,5-d]azepine] | ≥ 90
O=C(COc1cccc(Cl)c1)N1CCc2cnc(N3CCN(C4CCC4)CC3)nc2CC1 [Compound 330, 7-[(3-chlorophenoxy)acetyl]-2-(4-cyclobutylpiperazin-1-yl)-6,7,8,9-tetrahydro-5H-pyrimido[4,5-d]azepine] | ≥ 90
O=C(COc1ccc(Cl)cc1Cl)N1CCc2cnc(N3CCN(C4CCC4)CC3)nc2CC1 [Compound 331, 2-(4-cyclobutylpiperazin-1-yl)-7-[(2,4-dichlorophenoxy)acetyl]-6,7,8,9-tetrahydro-5H-pyrimido[4,5-d]azepine] | ≥ 90
Cc1ccc(OCC(=O)N2CCc3cnc(N4CCN(C5CCC5)CC4)nc3CC2)c(C)c1 [Compound 333, 2-(4-cyclobutylpiperazin-1-yl)-7-[(2,4-dimethylphenoxy)acetyl]-6,7,8,9-tetrahydro-5H-pyrimido[4,5-d]azepine] | ≥ 90

Continued, values first:

inhibition at 4 µM [%] | SMILES
≥ 90 | Cc1ccccc1OCC(=O)N1CCc2cnc(N3CCN(C4CCC4)CC3)nc2CC1 [Compound 321, 2-(4-cyclobutylpiperazin-1-yl)-7-[(2-methylphenoxy)acetyl]-6,7,8,9-tetrahydro-5H-pyrimido[4,5-d]azepine]
≥ 90 | COc1cccc(OCC(=O)N2CCc3cnc(N4CCN(C5CCC5)CC4)nc3CC2)c1 [Compound 324, 2-(4-cyclobutylpiperazin-1-yl)-7-[(3-methoxyphenoxy)acetyl]-6,7,8,9-tetrahydro-5H-pyrimido[4,5-d]azepine]
≥ 90 | COc1ccc(OCC(=O)N2CCc3cnc(N4CCN(C5CCC5)CC4)nc3CC2)cc1 [Compound 325, 2-(4-cyclobutylpiperazin-1-yl)-7-[(4-methoxyphenoxy)acetyl]-6,7,8,9-tetrahydro-5H-pyrimido[4,5-d]azepine]
≥ 90 | CC(C)(C)c1ccc(OCC(=O)N2CCc3cnc(N4CCN(C5CCC5)CC4)nc3CC2)cc1 [Compound 329, 7-[(4-tert-butylphenoxy)acetyl]-2-(4-cyclobutylpiperazin-1-yl)-6,7,8,9-tetrahydro-5H-pyrimido[4,5-d]azepine]
≥ 90 | O=C(COc1ccc(Cl)c(Cl)c1)N1CCc2cnc(N3CCN(C4CCC4)CC3)nc2CC1 [Compound 332, 2-(4-cyclobutylpiperazin-1-yl)-7-[(3,4-dichlorophenoxy)acetyl]-6,7,8,9-tetrahydro-5H-pyrimido[4,5-d]azepine]
≥ 90 | Cc1ccc(C)c(OCC(=O)N2CCc3cnc(N4CCN(C5CCC5)CC4)nc3CC2)c1 [Compound 334, 2-(4-cyclobutylpiperazin-1-yl)-7-[(2,5-dimethylphenoxy)acetyl]-6,7,8,9-tetrahydro-5H-pyrimido[4,5-d]azepine]
